Drawing on ChEMBL document CHEMBL3860091, “Synthesis and activity of newly designed aroxyalkyl or aroxyethoxyethyl derivatives of piperazine on the cardiovascular and the central nervous systems” (Bioorg Med Chem Lett, 2016), this text covers TIME, Activity and inhibition for two compounds.

Active and inactive are the calls of the source. The calls are words filed in the database; no cut-off is given here.

Experiment [1] is described as follows: Antidepressant-like activity in albino Swiss (CD-1) mouse assessed as immobility time at 2.5 mg/kg, ip administered 30 mins prior to test measured for last 4 mins of 6 mins observation by forced swim test (reference value: 178.3 +/- 12.3 sec). The experiment is classed as functional, organism-based.
Experiment [2] deals with Rattus norvegicus. The experiment can be described thus: Hypotensive activity in normotensive anesthetized Wistar rat assessed as diastolic blood pressure at 0.1 mg/kg, iv measured 10 mins post dose (reference value: 81.6 to 115.2 mmHg). In kind it is functional.
The subject of experiment [3] is Rattus norvegicus. The experiment can be described thus: Hypotensive activity in normotensive anesthetized Wistar rat assessed as systolic blood pressure at 0.1 mg/kg, iv measured 10 mins post dose (reference value: 107.4 to 148.3 mmHg). The experiment is classed as functional.
Experiment [4] deals with Rattus norvegicus. The experiment can be described thus: Inhibition of adrenaline-induced pressor response in normotensive Wistar rat at 1 mg/kg, iv measured 5 mins post dose. In kind it is functional, organism-based.
Experiment [5] has as its system Rattus norvegicus. The experiment can be described thus: Hypotensive activity in normotensive anesthetized Wistar rat assessed as systolic blood pressure at 0.1 mg/kg, iv measured 5 mins post dose (reference value: 107.4 to 148.3 mmHg). In kind it is functional.
Experiment [6] concerns Rattus norvegicus. The experiment can be described thus: Hypotensive activity in normotensive anesthetized Wistar rat assessed as diastolic blood pressure at 0.1 mg/kg, iv measured 60 mins post dose (reference value: 81.6 to 115.2 mmHg). The experiment is classed as functional.
Experiment [7] concerns Rattus norvegicus. The experiment can be described thus: Hypotensive activity in normotensive anesthetized Wistar rat assessed as systolic blood pressure at 0.1 mg/kg, iv measured 20 mins post dose (reference value: 107.4 to 148.3 mmHg). The experiment is classed as functional.
Experiment [8] relates to Rattus norvegicus. The experiment can be described thus: Inhibition of methoxamine-induced pressor response in normotensive Wistar rat at 1 mg/kg, iv measured 5 mins post dose. The experiment is classed as functional, organism-based.
The subject of experiment [9] is Rattus norvegicus. The experiment can be described thus: Hypotensive activity in normotensive anesthetized Wistar rat assessed as diastolic blood pressure at 0.1 mg/kg, iv measured 20 mins post dose (reference value: 81.6 to 115.2 mmHg). The experiment is classed as functional.
For experiment [10], the system named is Rattus norvegicus. The experiment can be described thus: Hypotensive activity in normotensive anesthetized Wistar rat assessed as diastolic blood pressure at 0.1 mg/kg, iv measured 30 mins post dose (reference value: 81.6 to 115.2 mmHg). The experiment is classed as functional.

Turning to `COc1ccccc1N1CCN(CCOCCOc2cccc(C)c2C)CC1.Cl.Cl`, the TIME in experiment [1] turned out to be 0.0447 h.
On to `COc1ccccc1N1CCN(CCCCOc2c(C)cccc2C)CC1.Cl`, for which the Activity in the experiment with Rattus norvegicus [2] is 112.7 mmHg; in the experiment with Rattus norvegicus [3], 138.3 mmHg; in the experiment with Rattus norvegicus [5], 142.7 mmHg; in the experiment on Rattus norvegicus [6], 101.3 mmHg; in the experiment with Rattus norvegicus [7], 131.7 mmHg; in the experiment with Rattus norvegicus [9], 104 mmHg. Moreover, the Activity in the experiment on Rattus norvegicus [10] stood at 103 mmHg. In addition, the inhibition result in the experiment with Rattus norvegicus [4] and with Rattus norvegicus [8] was “Active” throughout.
